Measured values published in patent US12290521B2, “Methods and materials for identifying and treating BET inhibitor-resistant cancers” (Mayo Foundation for Medical Education and Research, priority 2018, dated 2025).
“Also recorded” adds a separate entry of the source.

Assays:
Format in all cases: cell-based, human
[1] = tested on: BRD4; assay: Western blot of BRD4 protein, ubiquitination and half-life in DU145 cells; details: DU145 cells; JQ1, 24 hours
Protocol: Co-Immunoprecipitation (Co-IP) Cells were harvested and lysed by IP buffer (50 mM Tris-HCl, pH 7.4, 150 mM NaCl, 1% Triton X-100, 1% sodium deoxycholate and 1% protease inhibitor cocktails) on ice for more than 15 minutes. Cell lysate was centrifuged for 15 minutes at 13,000 rpm at 4° C., and the supernatant was incubated with primary antibodies and protein A/G agarose beads (Thermo Fisher Scientific) with rotating at 4° C. overnight. The next day, the pellet was washed at least six times with 1×IP buffer on ice, and then subjected to western blotting analysis. Western Blotting
(§1) Cells were harvested and lysed by IP buffer (50 mM Tris-HCl, pH 7.4, 150 mM NaCl, 1% Triton X-100, 1% sodium deoxycholate and 1% protease inhibitor cocktails) on ice for more than 15 minutes. Cell lysate was centrifuged for 15 minutes at 13,000 rpm at 4° C., and the supernatant was quantified by BCA protein quantification assay. Equal amounts of protein sample were added into 4× sample buffer and boiled for 5 minutes. The sample was subjected to SDS-PAGE analysis and transferred to nitrocellulose membrane. The membrane was blocked by 5% milk for 1 hour at room temperature and incubated with primary antibody at 4° C. overnight. The next day, the membrane was washed three times with 1×TBST and incubated with horseradish peroxidase-conjugated secondary antibodies for 1 hour at room temperature. The protein bands were visualized by SuperSignal West Pico Stable Peroxide Solution (Thermo Fisher Scientific).

[2] = tested on: C4-2 cells; assay: Western blot and RT-qPCR of protein and mRNA expression in C4-2 cells
Protocol: Cell lysates or immunoprecipitates were subjected to SDS-PAGE, and proteins were transferred to nitrocellulose membranes (GE Healthcare Sciences). The membranes were blocked in Tris-buffered saline (TBS, pH 7.4) containing 5% non-fat milk and 0.1% Tween-20, washed twice in TBS containing 0.1% Tween-20, and incubated with primary antibody overnight at 4° C., followed by secondary antibody for 1 hour at room temperature. The proteins of interest were visualized using ECL chemiluminescence system (Santa Cruz Biotechnology). Densitometry analysis of protein bands was analyzed on the Gel-Pro Analyzer software.
Total RNA was isolated from transiently transfected cells using the Trizol reagent (Thermo Fisher Scientific), and cDNA was reverse-transcribed using the Superscript RT kit (TOYOBO, Japan) according to the manufacturer's instructions. PCR amplification was performed using the SYBR Green PCR master mix Kit (TOYOBO, Japan). All quantization was normalized to the level of endogenous control GAPDH. The primer sequences for the SYBR green qPCR used were as follows: BRD2-F: 5′-[…]-3′ (SEQ ID NO:10); BRD2-R: 5′-[…]-3′ (SEQ ID NO:11); BRD3-F: 5′-[…]-3′ (SEQ ID NO:12); BRD3-R: 5′-[…]-[…]-3′ (SEQ ID NO:13); BRD4-F: 5′-[…]-GAG-3′ (SEQ ID NO:14); BRD4-F: 5′-[…]-3′ (SEQ ID NO: 15); RAC1-F: 5′-[…]-3′ (SEQ ID NO:16); RAC1-R: 5′-[…]-3′ (SEQ ID NO:17); FDFT1-F: 5′-ACTAT-[…]-3′ (SEQ ID NO:18); FDFT1-R: 5′-[…]-[…]-3′ (SEQ ID NO:19); DHCR24-F: 5′-[…]-GAGC-3′ (SEQ ID NO:20); DHCR24-R: 5′-[…]-3′(SEQ ID NO:21); DHCR7-F: 5′-[…]-3′ (SEQ ID NO: 22); DHCR7-R: 5′-[…]-3′ (SEQ ID NO:23); MVD-F: 5′-[…]-3′ (SEQ ID NO:24); MVD-R: 5′-CACAC-[…]-3′ (SEQ ID NO:25); PSA-F: 5′-[…]-[…]-3′ (SEQ ID NO:26); PSA-R: 5′-[…]-3′ (SEQ ID NO:27); TMPRSS2-F: 5′-[…]-3′ (SEQ ID NO: 28); TMPRSS2-R: 5′-[…]-3′ (SEQ ID NO:29); MYC-F: 5′-[…]-3′ (SEQ ID NO:30); MYC-R: 5′-CTTGT-[…]-3′ (SEQ ID NO:31); AR-F: 5′-[…]-TCACC-3′ (SEQ ID NO:32); AR-R: 5′-[…]-3′ (SEQ ID NO: 33); GAPDH-F: 5′-[…]-3′ (SEQ ID NO:34); and GAPDH-R: 5′-[…]-3′ (SEQ ID NO:35).
as §1
Total RNA was isolated using TRIzol reagent (Thermo Fisher Scientific). The NanoDrop 2000 spectrophotometer (Thermo Fisher Scientific) was used to assess RNA yield and quality. RNA was reversely transcribed using Superscript II reverse transcriptase (Thermo Fisher Scientific) following manufacturer's instructions. Quantitative real-time PCR was performed by mixing cDNA, gene-specific primers and IQ SYRB Green Supermix and detected by iCycler QTX detection system (Bio-Rad). The 2-ΔCt method was used to quantitate fold changes by normalizing to GAPDH.

[3] = tested on: C4-2 cells; assay: Cell proliferation assay (MTS) and trypan blue assay
Protocol: CellTiter 96® AQueous One Solution Cell Proliferation Assay (MTS) (Promega) was used to measure cell growth according to the manufacturer's instructions. Briefly, cells were plated in 96-well plates at a density of 2,000 cells per well. At the indicated times, 20 μL of Cell Titer 96R Aqueous One Solution Reagent was added to medium. After incubating for 1 hour at 37° C. in the cell incubator, cell growth was measured in a microplate reader at 490 nm.
Trypan blue assay was performed to measure cell growth according to the manufacturer's instructions. Briefly, cells were plated in 6-well plates at a density of about 5×10^4 to about 1×10^5 cells per well. At the indicated time points, cells were trypsinized and suspended in 1 mL 1×PBS. 100 μL cells and 100 μL trypan blue solution (Sigma-Aldrich) were mixed, and the number of viable cells was measured using the Bio-Rad automated cell counter.
Cell proliferation was measured by using the MTS assay (Promega). Prostate cancer cells (2,000 per well) were seeded in 96-well plates with 100 μL of culture medium. Each well was added with 20 μL of CellTiter 96R AQueous One Solution Reagent (Promega) and absorbance was measured in a microplate reader at 490 nm.

[4] = control and SPOP-F133V C4-2 cells, JQ1 1 μM, 24 hours

Cc1sc2c(c1C)C(c1ccc(Cl)cc1)=N[C@@H](CC(=O)OC(C)(C)C)c1nnc(C)n1-2 [JQ1]
BRD4 polyubiquitination [1]: markedly inhibited
ERG expression ([2]; C4-2 and 22Rv1 cells (JQ1 1 μM, 24 hours) and C4-2 tumors): largely decreased
BRD4 protein level ([2]; C4-2 cells, JQ1): increased
DUB3 mRNA and protein levels ([2]; C4-2 cells, JQ1): opposite; also recorded: upregulation
NCOR2 protein and mRNA expression ([2]; C4-2 cells, dose- and time-dependent): decreased
expression of cholesterol synthesis genes (FDFT1, DHCR24, DHCR7, MVD) and BRD4 binding at their promoters ([2]; SPOP-F133V C4-2 cells, JQ1 1 μM, 24 hours): not pronounced
expression of cholesterol synthesis genes (FDFT1, DHCR24, DHCR7, MVD) and BRD4 binding at their promoters ([2]; control C4-2 cells, JQ1 1 μM, 24 hours): largely inhibited
AR protein level [2, 4]: largely decreased
AR transcriptional activity [2, 4]: largely decreased
MYC protein expression [2, 4]: markedly decreased
expression of receptor tyrosine kinases HER3, IGF1R and INSR [2, 4]: no effect
sensitivity of cell growth to JQ1 ([3]; BRD4 knockout C4-2 cells with BRD2/3 largely depleted, JQ1 up to 500 nM, 24 hours): highly resistant
sensitivity of cell growth to JQ1 ([3]; SPOP F133V-expressing C4-2 cells, JQ1 2 μM, MTS): JQ1 resistance
effect on cell growth ([3]; SPOP-F133V-expressing C4-2 cells, JQ1 0.25 μM every other day): largely impeded
effect on cell growth ([3]; SPOP-knockdown C4-2 cells, JQ1 0.25 μM every other day): largely attenuated
cell growth ([3]; control (shC / EV) C4-2 cells, JQ1 0.25 μM every other day): robustly inhibited; also recorded: inhibited growth
